Data from patent US11980621B2, “Gonadotropin-releasing hormone antagonist dosing regimens for the treatment of endometriosis” (ObsEva S.A., priority 2017, dated 2024).

Key:
[1] = test system: human female patients having endometriosis; assay: 12-week oral treatment of endometriosis patients grouped by initial serum AMH; serum E2 concentration; type: in vivo
Description: In order to investigate the effects of GnRH antagonists, such as compound (I), (II), and pharmaceutically acceptable salts thereof, such as the choline salt thereof (compound (III)), on endometriosis patients presenting with distinct initial values of serum AMH, a series of experiments was conducted in which patients were divided into multiple treatment arms and orally administered either compound (III) or a placebo. Specifically, a series of n=327 human female patients having endometriosis were divided into five groups, and received either placebo, 50 mg/day of compound (III), 75 mg/day of compound (III), 100 mg/day of compound (III), or 200 mg/day of compound (III) by oral delivery. Treatment with the placebo or compound (III) at the doses specified above occurred continuously over a period of 12 weeks. At various time points throughout these experiments, patients were evaluated for their serum E2 concentration. As described herein, an objective of endometriosis therapy utilizing a GnRH antagonist is to suppress serum E2 values to within a range of from about 20 pg/ml to about 50 pg/ml or lower. Alleviation of endometriosis symptoms correlates with a reduction of serum E2, and achieving serum E2 levels that are either within this range or below are indicators of successful endometriosis treatment. To analyze the response of patients presenting with different initial AMH serum concentrations, patients were further divided into groups based on initial AMH serum level. These groups included patients having initial AMH serum concentrations of less than 15 pM, from 15 pM to 35 pM, or greater than 35 pM prior to commencing treatment with the GnRH antagonist.

[2] = molecular target: T1, human GnRH receptor (Homo sapiens, UniProt P30968); assay: affinity for human GnRH receptor; type: binding; settings: type of constant (Ki/IC50/Kd) not stated
T1 sequence (P30968 1-328): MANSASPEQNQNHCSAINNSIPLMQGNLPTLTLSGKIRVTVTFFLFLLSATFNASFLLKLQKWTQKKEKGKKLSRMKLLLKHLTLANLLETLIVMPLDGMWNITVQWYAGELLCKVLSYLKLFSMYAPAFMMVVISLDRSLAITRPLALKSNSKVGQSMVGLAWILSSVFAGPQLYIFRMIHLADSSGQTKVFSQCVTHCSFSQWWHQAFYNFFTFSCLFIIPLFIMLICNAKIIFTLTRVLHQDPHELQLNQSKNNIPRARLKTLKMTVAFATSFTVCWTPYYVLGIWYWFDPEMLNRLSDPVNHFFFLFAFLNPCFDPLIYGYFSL

[3] = test system: various animal models of endometriosis; assay: animal models of endometriosis; type: in vivo
[4] = test system: Japanese women; assay: daily dosing in Japanese women (LH, E2, endometriosis-associated pain, safety); type: in vivo, human; settings: doses between 50 and 200 mg daily

Row | SMILES | serum E2 concentration ([1]; 50 mg/day, 12-week treatment period, initial AMH serum concentration less than 15 pM (FIG. 1)) | suppression of serum E2 concentration ([1]; higher dosages, such as 100 mg/day and 200 mg/day, patients with higher initial serum AMH levels (FIG. 3)) | serum E2 ([1]; various daily doses, oral, 12 weeks, initial serum AMH from 15 pM to 35 pM (FIG. 2)) | serum E2 ([1]; various daily doses, oral, 12 weeks, initial serum AMH greater than 35 pM (FIG. 3)) | serum β17-estradiol (E2) ([1]; various daily doses, oral, 12 weeks, initial serum AMH less than 15 pM (FIG. 1)) | affinity for human GnRH receptor [2] | E2 secretion [3] | serum LH concentration [3] | size of endometriotic lesions [3] | endometriosis-associated pain [4] | luteinizing hormone (LH) [4] | safety and tolerability profile [4] | β17-estradiol (E2) [4]
1 | COc1cc(F)c(-n2c(=O)[nH]c3csc(C(=O)O)c3c2=O)cc1OCc1c(OC)ccc(F)c1F [compound (III), choline 3-[2-fluoro-5-(2,3-difluoro-6-methoxybenzyloxy)4-methoxyphenyl]-2,4-dioxo-1,2,3,4-tetrahydrothieno[3,4d]pyrimidine-5-carboxylate] | achieve a reduction in serum E2 concentration | generally required for suppression of serum E2 concentration | dose-dependent suppression | dose-dependent suppression | dose-dependent suppression |  |  |  |  |  |  |  | 
2 | COc1cc(F)c(-n2c(=O)[nH]c3csc(C(=O)O)c3c2=O)cc1OCc1c(OC)ccc(F)c1F [Compound (II), 3-[2-fluoro-5-(2,3-difluoro-6-methoxybenzyloxy)4-methoxyphenyl]-2,4-dioxo-1,2,3,4-tetrahydrothieno[3,4d]pyrimidine-5-carboxylic acid] |  |  |  |  |  | 27.4 nM | significantly suppressing | significantly suppressing | significantly suppressing | significantly reduce | suppress | good safety and tolerability profile | suppress
